Columns and labels:
[1] = test system: hematological malignant cell lines (leukemia, lymphoma, multiple myelomas); test: antiproliferative activity, hematological malignant cell line panel; format: cell-based; conditions: cell line panel representing leukemia, multiple myelomas (FIG. 2)
[2] = test system: ibrutinib-resistant variant of Pfeiffer ("Ibrutinib-R"); test: cell proliferation, ibrutinib-resistant Pfeiffer; format: cell-based; conditions: Homo sapiens, pools of resistant cells
Protocol: (§1) This activity of ASN002 was assessed using a diffuse large B-cell lymphoma (DLBCL) cell line, Pfeiffer (“Parental”); and an ibrutinib-resistant variant of the same cell line (“Ibrutinib-R”), which was developed by growing the cells in the presence of increasing concentrations of ibrutinib. Pools of ibrutinib-resistant cells were tested in this study. The drug idelalisib (which was approved by the FDA in […] for the treatment of B-cell blood cancers) was used for comparison as a reference compound. The data are set forth in Table A (IC50 is the half maximal inhibitory concentration).

Hec1A = test: antiproliferative activity, solid tumor cell line; format: cell-based; conditions: Homo sapiens, HEC-1-A, Endometrial
Protocol: (§2) Example 2. The Anti-Cancer Activity of ASN002 was Also Evaluated in Many Solid Tumor Cell Lines.

MDA-MB-231 = test: antiproliferative activity, solid tumor cell line; format: cell-based; conditions: Homo sapiens; MDA-MB-231, Breast
Protocol: as §2

U87MG = test: antiproliferative activity, solid tumor cell line; format: cell-based; conditions: Homo sapiens, U-87 MG, Glioblastoma
Protocol: as §2

HCC1954 = test: antiproliferative activity, solid tumor cell line; format: cell-based; conditions: Homo sapiens; HCC1954, Breast
Protocol: as §2

J82 = test: antiproliferative activity, solid tumor cell line; format: cell-based; conditions: Homo sapiens; J82, Bladder
Protocol: as §2

C33A = test: antiproliferative activity, solid tumor cell line; format: cell-based; conditions: Homo sapiens, C-33-A, Cervical
Protocol: as §2

SKMEL28 = test: antiproliferative activity, solid tumor cell line; format: cell-based; conditions: Homo sapiens, SK-MEL-28; SKMEL28, Melanoma
Protocol: as §2

CAOV3 = test: antiproliferative activity, solid tumor cell line; format: cell-based; conditions: Homo sapiens, Caov-3; CAOV3, Ovary
Protocol: as §2

HCC1937 = test: antiproliferative activity, solid tumor cell line; format: cell-based; conditions: Homo sapiens; HCC1937, Breast
Protocol: as §2

BxPC3 = test: antiproliferative activity, solid tumor cell line; format: cell-based; conditions: Homo sapiens, BXPC-3; BxPC3, Pancreas
Protocol: as §2

Colo205 = test: antiproliferative activity, solid tumor cell line; format: cell-based; conditions: Homo sapiens, COLO 205; Colo205, Colon
Protocol: as §2

HT1197 = test: antiproliferative activity, solid tumor cell line; format: cell-based; conditions: Homo sapiens; HT1197, Bladder
Protocol: as §2

T24 = test: antiproliferative activity, solid tumor cell line; format: cell-based; conditions: Homo sapiens, T-24; T24, Bladder
Protocol: as §2

JEG3 = test: antiproliferative activity, solid tumor cell line; format: cell-based; conditions: Homo sapiens, JEG-3; JEG3, Placenta
Protocol: as §2

DU145 = test: antiproliferative activity, solid tumor cell line; format: cell-based; conditions: Homo sapiens, DU-145; DU145, Prostate
Protocol: as §2

SKHEP1 = test: antiproliferative activity, solid tumor cell line; format: cell-based; conditions: Homo sapiens, SK-HEP1; SKHEP1, Endothelial
Protocol: as §2

MCF7 = test: antiproliferative activity, solid tumor cell line; format: cell-based; conditions: Homo sapiens; MCF7, Breast
Protocol: as §2

MFE296 = test: antiproliferative activity, solid tumor cell line; format: cell-based; conditions: Homo sapiens, MFE-296; MFE296, Endometrial
Protocol: as §2

H1975 = test: antiproliferative activity, solid tumor cell line; format: cell-based; conditions: Homo sapiens, NCI-H1975; H1975, Lung
Protocol: as §2

MDAMB468 = test: antiproliferative activity, solid tumor cell line; format: cell-based; conditions: Homo sapiens, MDA-MB-468; MDAMB468, Breast
Protocol: as §2

MKN1 = test: antiproliferative activity, solid tumor cell line; format: cell-based; conditions: Homo sapiens, MKN-1; MKN1, Gastric
Protocol: as §2

HeLa = test: antiproliferative activity, solid tumor cell line; format: cell-based; conditions: Homo sapiens, Cervical
Protocol: as §2

A549 = test: antiproliferative activity, solid tumor cell line; format: cell-based; conditions: Homo sapiens; A549, Lung
Protocol: as §2

PC3 = test: antiproliferative activity, solid tumor cell line; format: cell-based; conditions: Homo sapiens, PC-3; PC3, Prostate
Protocol: as §2

MFM-223 = test: antiproliferative activity, solid tumor cell line; format: cell-based; conditions: Homo sapiens; MFM-223, Breast
Protocol: as §2

Y79 = test: antiproliferative activity, solid tumor cell line; format: cell-based; conditions: Homo sapiens; Y79, Retiblastoma
Protocol: as §2

HepG2 = test: antiproliferative activity, solid tumor cell line; format: cell-based; conditions: Homo sapiens; HepG2, Liver
Protocol: as §2

HT1376 = test: antiproliferative activity, solid tumor cell line; format: cell-based; conditions: Homo sapiens, HT-1376; HT1376, Bladder
Protocol: as §2

AsPC1 = test: antiproliferative activity, solid tumor cell line; format: cell-based; conditions: Homo sapiens; AsPC1, Pancreas
Protocol: as §2

SCaBER = test: antiproliferative activity, solid tumor cell line; format: cell-based; conditions: Homo sapiens, Bladder
Protocol: as §2

BT474 = test: antiproliferative activity, solid tumor cell line; format: cell-based; conditions: Homo sapiens, BT-474; BT474, Breast
Protocol: as §2

HUG1N = test: antiproliferative activity, solid tumor cell line; format: cell-based; conditions: Gasrtic
Protocol: as §2

HCC1806 = test: antiproliferative activity, solid tumor cell line; format: cell-based; conditions: Homo sapiens; HCC1806, Breast
Protocol: as §2

SW1990 = test: antiproliferative activity, solid tumor cell line; format: cell-based; conditions: Homo sapiens; SW1990, Pancreas
Protocol: as §2

SKOV3 = test: antiproliferative activity, solid tumor cell line; format: cell-based; conditions: Homo sapiens, SK-OV-3; SKOV3, Ovarian
Protocol: as §2

SW780 = test: antiproliferative activity, solid tumor cell line; format: cell-based; conditions: Homo sapiens; SW780, Bladder
Protocol: as §2

H1581 = test: antiproliferative activity, solid tumor cell line; format: cell-based; conditions: Homo sapiens, NCI-H1581; H1581, Lung
Protocol: as §2

H460 = test: antiproliferative activity, solid tumor cell line; format: cell-based; conditions: Homo sapiens, NCI-H460; H460, Lung
Protocol: as §2

SW480 = test: antiproliferative activity, solid tumor cell line; format: cell-based; conditions: Homo sapiens; SW480, Colon
Protocol: as §2

ZR75 = test: antiproliferative activity, solid tumor cell line; format: cell-based; conditions: ZR75, Breast
Protocol: as §2

UMUC3 = test: antiproliferative activity, solid tumor cell line; format: cell-based; conditions: Homo sapiens; UMUC3, Bladder
Protocol: as §2

MDAMB453 = test: antiproliferative activity, solid tumor cell line; format: cell-based; conditions: Homo sapiens, MDA-MB-453; MDAMB453, Breast
Protocol: as §2

LoVo = test: antiproliferative activity, solid tumor cell line; format: cell-based; conditions: Homo sapiens, Colon
Protocol: as §2

MDAMB361 = test: antiproliferative activity, solid tumor cell line; format: cell-based; conditions: Homo sapiens, MDA-MB-361; MDAMB361, Breast
Protocol: as §2

LNCaP = test: antiproliferative activity, solid tumor cell line; format: cell-based; conditions: Homo sapiens, Prostate
Protocol: as §2

BT20 = test: antiproliferative activity, solid tumor cell line; format: cell-based; conditions: Homo sapiens, BT-20; BT20, Breast
Protocol: as §2

CFPac1 = test: antiproliferative activity, solid tumor cell line; format: cell-based; conditions: Homo sapiens, CFPAC-1; CFPac1, Pancreas
Protocol: as §2

Caki1 = test: antiproliferative activity, solid tumor cell line; format: cell-based; conditions: Homo sapiens, CAKI-1; Caki1, Kidney
Protocol: as §2

MIAPACA2 = test: antiproliferative activity, solid tumor cell line; format: cell-based; conditions: Homo sapiens, MIA PaCa-2; MIAPACA2, Pancreas
Protocol: as §2

HT29 = test: antiproliferative activity, solid tumor cell line; format: cell-based; conditions: Homo sapiens, HT-29; HT29, Colon
Protocol: as §2

HCT116 = test: antiproliferative activity, solid tumor cell line; format: cell-based; conditions: Homo sapiens, HCT-116; HCT116, Colon
Protocol: as §2

H1299 = test: antiproliferative activity, solid tumor cell line; format: cell-based; conditions: Homo sapiens, NCI-H1299; H1299, Lung
Protocol: as §2

A375 = test: antiproliferative activity, solid tumor cell line; format: cell-based; conditions: Homo sapiens, A-375; A375, Melanoma
Protocol: as §2

EAhy296 = test: antiproliferative activity, solid tumor cell line; format: cell-based; conditions: EAhy296, Endothelial
Protocol: as §2

TCCSUP = test: antiproliferative activity, solid tumor cell line; format: cell-based; conditions: Homo sapiens, TCC-SUP, Bladder
Protocol: as §2

KE39 = test: antiproliferative activity, solid tumor cell line; format: cell-based; conditions: KE39, Gastric
Protocol: as §2

SKMEL2 = test: antiproliferative activity, solid tumor cell line; format: cell-based; conditions: Homo sapiens, SK-MEL-2; SKMEL2, Melanoma
Protocol: as §2

5637 = test: antiproliferative activity, solid tumor cell line; format: cell-based; conditions: 5637, Bladder
Protocol: as §2

[3] = test system: DLBCL xenograft derived from Pfeiffer cell line; test: DLBCL xenograft mouse model (Pfeiffer); format: in vivo; conditions: Pfeiffer cell line (FIG. 3)
[4] = test system: multiple myeloma model derived from H929 cell line; test: mouse model of multiple myeloma (H929); format: in vivo; conditions: H929 cell line (FIG. 5)
[5] = test system: human erythroleukemia model derived from HEL cell line; test: mouse model of human erythroleukemia (HEL); format: in vivo; conditions: HEL cell line (FIG. 6)
[6] = test system: Pfeiffer ("Parental") DLBCL cell line; test: cell proliferation, Pfeiffer parental; format: cell-based; conditions: Homo sapiens
Protocol: as §1

[7] = test system: DLBCL xenograft derived from SU-DHL-6 cell line; test: DLBCL xenograft mouse model (SU-DHL-6); format: in vivo; conditions: SU-DHL-6 cell line (FIG. 4)
[8] = test system: Pfeiffer (DLBCL cell line); test: caspase 3/7 apoptosis assay; format: cell-based; conditions: Homo sapiens, 24-hour treatment (FIG. 1), read-out: EC50, induced apoptosis (caspase 3/7 assay)

N#CCC1CCN(c2nc(Nc3ccc(N4CCC(O)CC4)cc3)c3c(=O)[nH]ncc3n2)CC1 [ASN002, 2-(1-(4-((4-(4-hydroxypiperidin-1-yl)phenyl)amino)-5-oxo-5,6-dihydropyrimido[4,5-d]pyridazin-2-yl)piperidin-4-yl)acetonitrile]
antiproliferative activity [1]: strong antiproliferative activity
IC50 [2]: 0.32 µM
IC50 (Hec1A): 0.66 µM
IC50 (MDA-MB-231): 0.77 µM
IC50 (U87MG): > 10 µM
IC50 (HCC1954): > 10 µM
IC50 (J82): 2.75 µM
IC50 (C33A): 0.5 µM
IC50 (SKMEL28): > 10 µM
IC50 (CAOV3): 0.42 µM
IC50 (HCC1937): > 10 µM
IC50 (BxPC3): 0.66 µM
IC50 (Colo205): 0.61 µM
IC50 (HT1197): 0.54 µM
IC50 (T24): 0.44 µM
IC50 (JEG3): > 10 µM
IC50 (DU145): 0.99 µM
IC50 (SKHEP1): > 10 µM
IC50 (MCF7): 0.6 µM
IC50 (MFE296): 0.88 µM
IC50 (H1975): 0.85 µM
IC50 (MDAMB468): 1.46 µM
IC50 (MKN1): 0.88 µM
IC50 (HeLa): 0.77 µM
IC50 (A549): 0.46 µM
IC50 (PC3): 1.98 µM
IC50 (MFM-223): 0.4 µM
IC50 (Y79): > 10 µM
IC50 (HepG2): 0.24 µM
IC50 (HT1376): 0.09 µM
IC50 (AsPC1): 0.84 µM
IC50 (SCaBER): 0.45 µM
IC50 (BT474): > 10 µM
IC50 (HUG1N): 0.81 µM
IC50 (HCC1806): 1.63 µM
IC50 (SW1990): 1.62 µM
IC50 (SKOV3): 0.73 µM
IC50 (SW780): > 10 µM
IC50 (H1581): 0.38 µM
IC50 (H460): 0.91 µM
IC50 (SW480): 0.6 µM
IC50 (ZR75): 0.42 µM
IC50 (UMUC3): 2.28 µM
IC50 (MDAMB453): 1.74 µM
IC50 (LoVo): 0.15 µM
IC50 (MDAMB361): 0.49 µM
IC50 (LNCaP): 1.07 µM
IC50 (BT20): 2.13 µM
IC50 (CFPac1): 0.85 µM
IC50 (Caki1): 0.33 µM
IC50 (MIAPACA2): 2.77 µM
IC50 (HT29): 0.3 µM
IC50 (HCT116): 0.43 µM
IC50 (H1299): > 10 µM
IC50 (A375): 0.61 µM
IC50 (EAhy296): 1.8 µM
IC50 (TCCSUP): 0.34 µM
IC50 (KE39): 0.86 µM
IC50 (SKMEL2): 1.03 µM
IC50 5637: 0.42 µM
tumor growth [3]: inhibited tumor growth
tumor growth [4]: inhibited tumor growth
hind limb paralysis [5]: delayed the hind limb paralysis
IC50 [6]: 0.08 µM
tumor growth [7]: inhibited tumor growth
EC50 [8]: 0.12 µM

C=CC(=O)N1CCC[C@@H](n2nc(-c3ccc(Oc4ccccc4)cc3)c3c(N)ncnc32)C1 [Ibrutinib, ibrutinib]
IC50 [2]: 4.5 µM
IC50 [6]: 0.27 µM

CC[C@H](Nc1ncnc2[nH]cnc12)c1nc2cccc(F)c2c(=O)n1-c1ccccc1 [Idelalisib, idelalisib]
IC50 [2]: > 10 µM
IC50 [6]: 0.13 µM

Reference: patent US20190070182A1, “USES OF PYRIMIDO-PYRIDAZINONES TO TREAT CANCER” (Asana Biosciences, LLC, priority 2015, published 2019)
